Reference: ChEMBL document CHEMBL1201862, “PubChem BioAssay data set” (2004)
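Step 1: Grow cells in 96-well plates. Step 2: Expose to compound for 48 hours at 5 concentrations. Step 3: Interpolate endpoints linearly; if unreached, use highest concentration. The concentration for 50% growth inhibition is given as GI50.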 Active and inactive are the calls of the source. No stated cut-off is given here; in the data, active = GI50 up to about 1.1 µM and inactive = higher.

Assays:
Experiment in all cases: NCI-60 cell line screen, 48 h
[1] = test system: EKVX
[2] = test system: HOP-62
[3] = test system: KM12
[4] = test system: MDA-MB-435
[5] = test system: MOLT-4
[6] = test system: NCI-H226
[7] = test system: NCI-H23
[8] = test system: NCI-H460
[9] = test system: NCI-H522
[10] = test system: OVCAR-3
[11] = test system: OVCAR-4
[12] = test system: OVCAR-5
[13] = test system: PC-3
[14] = test system: RXF 393
[15] = test system: SF-295
[16] = test system: SK-MEL-5
[17] = test system: SNB-75
[18] = test system: SW-620
[19] = test system: TK-10
[20] = test system: UACC-257

Measured: GI50

COC12C=CC(C=C1C#N)CC2.COC12C=CC(CC1)CC2=O (stereo not drawn)
inactive: [1] > 100 µM | [2] > 100 µM | [3] > 100 µM | [4] > 100 µM | [5] > 100 µM | [6] > 100 µM | [7] > 100 µM | [8] > 100 µM | [9] > 100 µM | [10] > 100 µM | [11] > 100 µM | [12] > 100 µM | [13] > 100 µM | [14] > 100 µM | [15] > 100 µM | [16] > 100 µM | [17] 67.8 µM | [18] > 100 µM | [19] > 100 µM | [20] > 100 µM

COC(=O)C(=O)C(C(=O)C(=O)Nc1cccc([N+](=O)[O-])c1)c1nc2ccc(Cl)cc2nc1O (stereo not drawn)
inactive: [1] 18.1 µM | [2] > 100 µM | [3] > 100 µM | [4] > 100 µM | [5] > 100 µM | [6] 82.6 µM | [7] > 100 µM | [8] > 100 µM | [9] > 100 µM | [10] > 100 µM | [11] > 100 µM | [12] > 100 µM | [13] > 100 µM | [14] > 100 µM | [15] > 100 µM | [16] > 100 µM | [17] 77.1 µM | [18] > 100 µM | [19] > 100 µM | [20] > 100 µM

c1ccc2c(c1)CCN1CCc3c([nH]c4ccccc34)C21 (stereo not drawn)
inactive: [1] 28.2 µM | [2] 36 µM | [3] 26.5 µM | [4] 26.7 µM | [5] 24.5 µM | [6] 41.7 µM | [7] 38.8 µM | [8] 38.7 µM | [9] 34 µM | [10] 24 µM | [11] 35.2 µM | [12] 22.4 µM | [13] 26.6 µM | [14] 21.5 µM | [15] 20 µM | [16] 15.1 µM | [17] 24.9 µM | [18] 36.2 µM | [19] 42 µM | [20] 24.4 µM

CC1(C)CC(=O)c2c(-c3ccc(Cl)cc3)c(C#N)c(=S)n(C3OC(CO)C(O)C(O)C3O)c2C1 (stereo not drawn)
inactive: [2] 69.5 µM | [3] 37.3 µM | [4] 27.9 µM | [5] 25 µM | [6] 20.9 µM | [7] 50.8 µM | [8] 30.3 µM | [9] 35 µM | [10] 30.9 µM | [11] 49.2 µM | [12] > 100 µM | [13] 17.2 µM | [14] 36.2 µM | [15] 38 µM | [16] 15.2 µM | [17] 25.3 µM | [18] 36.6 µM | [19] 53.3 µM | [20] 28.4 µM

N#CC(NNC(=O)Cc1ccccc1)c1c(O)ccc2ccccc12 (stereo not drawn)
inactive: [1] 5.56 µM | [2] 10.2 µM | [3] 4.02 µM | [4] 10.4 µM | [5] 2.23 µM | [6] 18.4 µM | [7] 4.89 µM | [8] 4.25 µM | [9] 3.47 µM | [10] 2.99 µM | [11] 5.5 µM | [12] 13.9 µM | [13] 5.33 µM | [14] 7 µM | [15] 4.63 µM | [16] 3.46 µM | [17] 8.47 µM | [18] 6.98 µM | [19] 20.3 µM | [20] 3.59 µM

O=c1ccn(-c2ccccn2)c(=O)n1-c1ccccn1
inactive: [1] > 100 µM | [2] > 100 µM | [3] > 100 µM | [4] > 100 µM | [5] > 100 µM | [6] > 100 µM | [7] > 100 µM | [8] > 100 µM | [9] > 100 µM | [10] > 100 µM | [11] > 100 µM | [12] > 100 µM | [13] > 100 µM | [14] > 100 µM | [15] > 100 µM | [16] > 100 µM | [17] > 100 µM | [18] > 100 µM | [19] > 100 µM | [20] > 100 µM

Cc1cn(C2CC(N=[N+]=[N-])C(CO)O2)c(=O)n(CCCCO)c1=O (stereo not drawn)
inactive: [1] > 100 µM | [2] > 100 µM | [3] > 100 µM | [4] > 100 µM | [5] > 100 µM | [6] > 100 µM | [7] > 100 µM | [8] > 100 µM | [9] > 100 µM | [10] > 100 µM | [11] > 100 µM | [12] > 100 µM | [13] > 100 µM | [14] > 100 µM | [15] > 100 µM | [17] 88.3 µM | [18] > 100 µM | [19] > 100 µM | [20] > 100 µM
